Holding throughout (assay type): in vivo, C57BL/6 mice
Experiment [1] concerns CD3e^+ T cells in blood. As to the kind of experiment: T cell count in blood after CPA and T cell transfer, syngeneic tumor model C57BL/6-hB16F10. The note with it: day 6 after cell administration; group A defined as 100%; CPA 100 mg/kg i.p. day 4. As to the method:
Evaluation of the lymphocyte count was effected by measuring the leukocyte count and the T cell count contained in the blood sample collected from the mouse tail vein. A volume of 22 μL of the blood was collected into a 0.5 mL tube containing 3 μL of heparin sodium (manufactured by Mitsubishi Wellpharma Inc.) per one mouse. An aliquote of 15 μL was taken from the blood sample, added to a mixed solution of 14 μL of Flow-Count (manufactured by Beckman Coulter Inc.) and 0.5 μL of hamster anti-mouse CD3e FITC (manufactured by eBioscience Inc.), and the mixture was treated for 15 minutes. Thereafter, the erythrocytes were hemolysed with a low isotonic solution, and subjected to flow cytometry to calculate the rate of T cells and the recovery rate of T cells, with the CD3e^+ cells being as the T cells. […] […] Moreover, the recovery rate of the T cells was determined to be a ratio of the number of the T cells on day 4 after the cell administration relative to the number of the T cells immediately before the cell administration.
In a similar manner to item (5) of Example 1, expansion of mouse T cell population was carried out.
Using the mouse T cells which had been expanded in item (1) of Example 11, separation of the naive T-like cells and the effector T-like cells was performed similarly to item (2) of Example 10. […]

The subject of experiment [2] is hB16F10. As to the kind of experiment: Antitumor activity (tumor size) after CPA and T cell transfer, syngeneic tumor model C57BL/6-hB16F10. Particulars: day 11 after tumor inoculation; CPA 100 mg/kg i.p. day 4.
Experimental: On the next day, individual mouse T cells prepared in item (2) of Example 11 was prepared with an RPMI 1640 medium to a density of 3.75×10^8 cells/mL, and the naive T-like cells and the effector T-like cells in 0.2 mL each were administered via the tail veins to each individual of group C and group D, respectively. In addition, the RPMI 1640 medium was administered to each individual of group A and group B in 0.2 mL each via the tail veins.
However, the tumor size was determined on days 11 and 13 after the tumor inoculation.
In experiment [3] the test system is CD3e^+ T cells in blood. As to the kind of experiment: T cell count in blood after MMC and T cell transfer, syngeneic tumor model C57BL/6-hB16F10. As to the method: In a similar manner to item (5) of Example 1, expansion of mouse T cells was carried out, however, the human CH-296 was not used, and the cells on day 6 of culture were collected. The cells were subjected to each experiment.
The cells obtained in item (1) of Example 10 were collected to take a required amount, and centrifuged at 500×g for 5 minutes at room temperature to remove the supernatant. Thereafter, the cells were suspended in DPBS containing 0.5% BSA and 2 mM disodium ethylenediaminetetraacetate (hereinafter referred to as 0.5% BSA/DPBS) to a density of 1.11×10^8 cells/mL. CD62L ([…]) microbeads (mouse) (manufactured by MACS) were added to the cell solution in 10 μL per cell count of 1×10^7 cells, and incubated for 15 minutes while stirring sometimes in a dark place at 4° C. Then, to the cell solution was added 1 mL of 0.5% BSA/DPBS per cell count of 1×10^7 cells, and the mixture was centrifuged at 500×g for 5 minutes at room temperature to remove the supernatant. After that, 0.5 mL of 0.5% BSA/DPBS per cell count of 1×10^8 cells was added thereto, suspended sufficiently, and allowed to stand on ice to afford a CD62L microbeads target cell solution. An LS column (manufactured by MACS, hereinafter referred to as a separation column) was provided to a VarioMACS (trademark) separator (manufactured by MACS, hereinafter referred to as a separation apparatus) and rinsed with 3 mL of 0.5% BSA/DPBS. The CD62L microbeads-labeled cell solution was added to the column for elution and further rinsed with 9 mL of 0.5% BSA/DPBS to collect an eluate, thereby obtaining CD62L^− cells as effector T-like cells. The column was removed from the separation apparatus, and CD62L^+ cells were collected as naive T-like cells by extrusion with a plunger attached to the separation apparatus after addition of 5 mL of a buffer.
Hair removal of about 9 cm^2 in the right inguina of 7-week old female C57BL/6 mice was effected under anesthesia, and 0.1 mL of hB16F10 suspended in an RPMI 1640 medium to a density of 4×10^6 cells/mL was subcutaneously administered to the mice. […]

Experiment [4] concerns hB16F10. As to the kind of experiment: Antitumor activity (tumor size) after MMC and T cell transfer, syngeneic tumor model C57BL/6-hB16F10. Particulars: day 14 after tumor inoculation; product of major and minor diameter. As to the method:
Hair removal of about 9 cm^2 in the right inguina of 7-week old female C57BL/6 mice was effected under anesthesia, and 0.1 mL of hB16F10 suspended in an RPMI 1640 medium to a density of 4×10^6 cells/mL was subcutaneously administered to the mice. Thereafter, group settings were carried out as follows. Group A was set to an untreated group, group B was set to an MMC alone administration group, group C was set to a combinatorial MMC and naive T-like cell administration group, and group D was set to a combinatorial MMC and effector T-like cell administration group. On days 3 and 4 after tumor inoculation, 0.2 mL of a saline (manufactured by Otsuka Pharmaceutical Co., Ltd.) was intraperitoneally administered to group A and the MMC at a dose of 2 mg/kg was intraperitoneally administered to other groups. On day 6 after the tumor inoculation, individual mouse T cells prepared in item (2) of Example 10 were prepared with an RPMI 1640 medium to a density of 5×10^8 cells/mL. The naive T-like cells and the effector T-like cells in 0.2 mL each were respectively administered to each individual of group C and group D via the tail veins. […]
In order to assay the antitumor activity in the evaluation system performed in item (3) of Example 10, a tumor size in each individual on day 14 after the tumor inoculation was determined with an electronic caliper. […]

SMILES strings stand for the structures.

As for `O=P1(N(CCCl)CCCl)NCCCO1` (stereo not drawn) [CPA, cyclophosamide], the “Rate of T cells (%)” value in the experiment on CD3e^+ T cells in blood [1] is 52.2%. Besides, the “Tumor Size (mm^2) On day 11” value in the experiment with hB16F10 [2] is recorded as 32.6 mm^2.
Regarding `CO[C@@]12[C@H](COC(N)=O)C3=C(C(=O)C(C)=C(N)C3=O)N1C[C@@H]1N[C@@H]12` [MMC, mitomycin C], the “Rate of T Cells On Day 4 after Cell Administration” value with CD3e^+ T cells in blood [3] (group A (untreated) defined as 100%, MMC 2 mg/kg i.p. days 3 and 4, cells via tail vein day 6) was 118.2%. Besides, the “Rate of T Cells Immediately before Cell Administration” value with CD3e^+ T cells in blood [3] (group A (untreated) defined as 100%, MMC 2 mg/kg i.p. on days 3 and 4 after tumor inoculation) came out at 84.1%. Besides, the “Recovery Rate of T Cells” value with CD3e^+ T cells in blood [3] (ratio of T cell number on day 4 after cell administration to number immediately before) came to 1.4. For the same compound, the “Tumor Size (mm^2)” value with hB16F10 [4] amounted to 82.5 mm^2.

The record behind these values is patent US20100247579A1, “THERAPEUTIC AGENT FOR CANCER” (priority 2007, published 2010).
